Counter-ions that a name gives are not always drawn.
Key:
Format in all cases: biochemical
[1] = molecular target: T1, recombinant human MAO-B (monoamine oxidase-B) (Homo sapiens, UniProt P27338); experiment: Activity on recombinant human MAO-B, method similar to the VAP-1 assay; conditions: substrate 1 mM benzylamine; read-out: Inhibitory Activity (IC50, nM) MAO-B
T1 construct: purchased Sigma-Aldrich
T1 sequence (P27338 1-520): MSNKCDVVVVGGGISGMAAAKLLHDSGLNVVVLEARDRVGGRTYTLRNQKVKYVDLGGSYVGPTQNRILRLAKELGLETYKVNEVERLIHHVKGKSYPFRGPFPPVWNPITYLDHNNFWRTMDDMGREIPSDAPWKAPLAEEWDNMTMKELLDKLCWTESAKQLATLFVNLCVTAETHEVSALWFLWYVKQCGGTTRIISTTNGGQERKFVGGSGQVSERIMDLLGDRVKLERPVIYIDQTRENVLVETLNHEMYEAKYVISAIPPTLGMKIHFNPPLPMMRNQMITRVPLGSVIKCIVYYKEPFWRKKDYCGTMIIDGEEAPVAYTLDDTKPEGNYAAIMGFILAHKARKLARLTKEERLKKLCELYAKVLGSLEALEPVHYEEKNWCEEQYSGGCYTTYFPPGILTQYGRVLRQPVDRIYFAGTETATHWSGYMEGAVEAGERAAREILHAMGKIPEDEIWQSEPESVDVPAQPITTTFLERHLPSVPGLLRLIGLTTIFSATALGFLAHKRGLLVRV
Summary of the method: (§1)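 HRP-coupled Amplex Red H2O2 assay, 50 mM sodium phosphate pH 7.4; compounds (8-point 1:3 series, final DMSO <1%) preincubated with enzyme 30 min at 37° C, then 200 uM Amplex Red, 1 U/mL HRP and substrate (MAO-A 0.5 mM tyramine; MAO-B 1 mM benzylamine) added. Resorufin fluorescence (ex 544/em 590 nm) read over 1-2 h; IC50 from four-parameter logistic fit.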

[2] = molecular target: T2, recombinant human DAO (diamine oxidase) (Homo sapiens, UniProt P19801); experiment: Activity on recombinant human DAO, method similar to the VAP-1 assay; conditions: substrate 1 mM putrescine; read-out: Inhibitory Activity (IC50, nM) DAO
T2 construct: purchased R&D systems
T2 sequence (P19801 20-751): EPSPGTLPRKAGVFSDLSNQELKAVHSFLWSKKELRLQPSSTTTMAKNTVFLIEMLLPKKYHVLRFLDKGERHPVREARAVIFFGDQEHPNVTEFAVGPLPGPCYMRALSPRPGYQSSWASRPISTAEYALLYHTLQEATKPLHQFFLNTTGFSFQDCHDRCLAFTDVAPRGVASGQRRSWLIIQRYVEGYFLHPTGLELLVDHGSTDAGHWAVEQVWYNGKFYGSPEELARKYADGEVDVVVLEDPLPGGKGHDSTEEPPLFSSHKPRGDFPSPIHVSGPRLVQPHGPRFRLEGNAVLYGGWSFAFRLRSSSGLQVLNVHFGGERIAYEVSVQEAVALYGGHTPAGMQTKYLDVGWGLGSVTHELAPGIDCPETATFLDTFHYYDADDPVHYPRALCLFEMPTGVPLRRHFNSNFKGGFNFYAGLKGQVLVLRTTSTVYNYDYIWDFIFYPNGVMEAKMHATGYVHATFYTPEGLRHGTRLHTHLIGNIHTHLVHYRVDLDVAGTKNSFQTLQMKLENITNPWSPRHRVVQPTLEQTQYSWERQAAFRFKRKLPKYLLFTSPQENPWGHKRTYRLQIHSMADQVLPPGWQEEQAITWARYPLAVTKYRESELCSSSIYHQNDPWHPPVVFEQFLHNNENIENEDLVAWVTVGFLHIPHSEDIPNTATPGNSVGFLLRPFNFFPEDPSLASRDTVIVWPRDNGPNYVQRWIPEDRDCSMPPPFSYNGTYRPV
Summary of the method: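 Inhibition of recombinant human diamine oxidase (DAO, R&D systems) was assessed by the same approach as the VAP-1 assay, using 1 mM putrescine as substrate. Hydrogen peroxide formed was detected through an HRP-coupled Amplex Red reaction yielding fluorescent resorufin, read at 544 nm excitation and 590 nm emission. IC50 values came from four-parameter logistic fitting in GraphPad Prism.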

[3] = molecular target: T3, recombinant human MAO-A (monoamine oxidase-A) (Homo sapiens, UniProt P21397); experiment: Activity on recombinant human MAO-A, method similar to the VAP-1 assay; conditions: substrate 0.5 mM tyramine; read-out: Inhibitory Activity (IC50, nM) MAO-A
T3 construct: purchased Sigma-Aldrich
T3 sequence (P21397 1-527): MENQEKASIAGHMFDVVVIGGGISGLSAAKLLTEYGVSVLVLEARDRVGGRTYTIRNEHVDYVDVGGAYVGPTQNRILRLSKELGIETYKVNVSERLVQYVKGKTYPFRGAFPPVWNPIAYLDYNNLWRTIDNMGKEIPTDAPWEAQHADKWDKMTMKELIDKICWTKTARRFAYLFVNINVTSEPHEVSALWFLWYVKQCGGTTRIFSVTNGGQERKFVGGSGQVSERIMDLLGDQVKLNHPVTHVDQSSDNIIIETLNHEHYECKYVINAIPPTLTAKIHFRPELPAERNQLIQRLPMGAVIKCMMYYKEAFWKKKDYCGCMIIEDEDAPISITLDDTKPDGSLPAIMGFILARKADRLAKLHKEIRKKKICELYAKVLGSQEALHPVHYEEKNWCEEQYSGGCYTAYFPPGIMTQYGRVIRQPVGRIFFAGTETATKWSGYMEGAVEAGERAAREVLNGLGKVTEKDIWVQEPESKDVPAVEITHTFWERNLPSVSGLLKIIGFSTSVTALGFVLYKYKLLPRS
Summary of the method: as §1

[4] = molecular target: T4, recombinant human VAP-1 (Homo sapiens, UniProt Q16853); experiment: Activity on recombinant human VAP-1, HRP-coupled Amplex Red hydrogen peroxide assay; conditions: substrate 1 mM benzylamine; compound incubated with enzyme at 37° C. for 30 minutes; pH 7.4; read-out: Inhibitory Activity (IC50, nM) human VAP-1
T4 construct: purchased R&D systems
T4 sequence (Q16853 1-763): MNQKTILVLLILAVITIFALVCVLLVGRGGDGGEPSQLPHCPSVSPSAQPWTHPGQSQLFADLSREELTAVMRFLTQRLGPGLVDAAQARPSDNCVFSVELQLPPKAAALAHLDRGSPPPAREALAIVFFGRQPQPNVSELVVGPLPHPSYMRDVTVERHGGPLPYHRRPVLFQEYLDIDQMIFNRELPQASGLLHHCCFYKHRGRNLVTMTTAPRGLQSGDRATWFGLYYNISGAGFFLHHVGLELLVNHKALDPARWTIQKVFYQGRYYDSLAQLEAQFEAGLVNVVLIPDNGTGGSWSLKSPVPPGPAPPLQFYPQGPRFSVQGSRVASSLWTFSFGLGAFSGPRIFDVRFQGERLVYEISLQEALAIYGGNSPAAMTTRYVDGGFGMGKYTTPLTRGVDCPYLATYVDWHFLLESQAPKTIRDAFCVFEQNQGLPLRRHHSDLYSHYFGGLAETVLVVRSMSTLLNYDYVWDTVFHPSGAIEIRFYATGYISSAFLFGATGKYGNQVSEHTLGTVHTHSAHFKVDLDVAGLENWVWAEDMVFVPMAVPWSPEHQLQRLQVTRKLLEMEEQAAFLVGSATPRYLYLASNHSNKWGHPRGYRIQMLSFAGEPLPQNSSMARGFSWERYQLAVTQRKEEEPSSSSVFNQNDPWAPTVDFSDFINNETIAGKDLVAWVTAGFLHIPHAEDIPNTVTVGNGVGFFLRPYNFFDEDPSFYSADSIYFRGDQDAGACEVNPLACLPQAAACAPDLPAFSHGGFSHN
Summary of the method: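 8-point 1:3 dilutions, final DMSO <1%; 30 min enzyme preincubation, 37 °C, pH 7.4 phosphate. Start: 1 mM benzylamine + 200 uM Amplex Red + 1 U/mL HRP. Read ex544/em590 over 1-2 h; % rate decrease vs DMSO control, 4-parameter logistic IC50.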

IC50 [1] [nM]	IC50 [2] [nM]	IC50 [3] [nM]	IC50 [4] [nM]	SMILES
1200	390	4000	1.1	CN1CCNc2cc(-c3ccc(Cn4cnn(C/C(=C/F)CN)c4=O)s3)ccc21 [Example 104, 2-[(E)-2-(aminomethyl)-3-fluoro-allyl]-4-[[5-(1-methyl-3,4-dihydro-2H-quinoxalin-6-yl)-2-thienyl]methyl]-1,2,4-triazol-3-one]
150	910	> 100000	0.8	NC/C(=C\F)Cn1ncn(Cc2ccc(C#Cc3cccnc3)s2)c1=O [Example 127, 2-[(2E)-2-(aminomethyl)-3-fluoroprop-2-en-1-yl]-4-[5-(pyridin-3-ylethynyl)thiophen-2-yl]methyl-2,4-dihydro-3H-1,2,4-triazol-3-one hydrochloride]
200	120	> 100000	0.5	NC/C(=C\F)Cn1ncn(Cc2ccc(-c3cccc(S(=O)(=O)N4CCCC4)c3)s2)c1=O [Example 28, 2-[(2E)-2-(aminomethyl)-3-fluoroprop-2-en-1-yl]-4-(5-[3-(pyrrolidin-1-ylsulfonyl)phenyl]thiophen-2-ylmethyl)-2,4-dihydro-3H-1,2,4-triazol-3-one hydrochloride]
420	780	22500	0.7	CC(=O)Nc1nc2cc(-c3ccc(Cn4cnn(C/C(=C/F)CN)c4=O)s3)ccc2s1 [Example 189, N-{5-[5-({1-[(2E)-2-(aminomethyl)-3-fluoroprop-2-en-1-yl]-5-oxo-1,5-dihydro-4H-1,2,4-triazol-4-yl}methyl)thiophen-2-yl]-1,3-benzothiazol-2-yl}acetamide]
380	230	28000	0.4	CC1Oc2ccc(-c3ccc(Cn4cnn(C/C(=C/F)CN)c4=O)s3)cc2NC1=O (stereo not drawn) [Example 97, 6-[5-[[1-[(E)-2-(aminomethyl)-3-fluoro-allyl]-5-oxo-1,2,4-triazol-4-yl]methyl]-2-thienyl]-2-methyl-4H-1,4-benzoxazin-3-one hydrochloride]
740	380	> 10000	1.3	CSc1ccc(-c2ccc(Cn3cnn(C/C(=C/F)CN)c3=O)s2)cn1 [Example 46, 2-[(2E)-2-(aminomethyl)-3-fluoroprop-2-en-1-yl]-4-(5-[6-(methylsulfanyl)pyridin-3-yl]thiophen-2-ylmethyl)-2,4-dihydro-3H-1,2,4-triazol-3-one hydrochloride]
120	310	87000	0.8	CN1C(=O)COc2ccc(-c3ccc(Cn4cnn(C/C(=C/F)CN)c4=O)s3)cc21 [Example 96, 6-[5-(1-[(2E)-2-(aminomethyl)-3-fluoroprop-2-en-1-yl]-5-oxo-1,5-dihydro-4H-1,2,4-triazol-4-ylmethyl)thiophen-2-yl]-4-methyl-2H-1,4-benzoxazin-3(4H)-one hydrochloride]
1000	620	> 100000	1.2	COc1cc(-c2ccc(Cn3cnn(C/C(=C/F)CN)c3=O)s2)cc(OC)c1OC [Example 17, 2-[(2E)-2-(aminomethyl)-3-fluoroprop-2-en-1-yl]-4-[5-(3,4,5-trimethoxyphenyl)thiophen-2-yl]methyl-2,4-dihydro-3H-1,2,4-triazol-3-one hydrochloride]
> 10000	1300	63000	0.2	NC/C(=C\F)Cn1ncn(Cc2ccc(-c3ccc4c(c3)OCC(=O)N4)s2)c1=O [Example 84, 7-[5-(1-[(2E)-2-(aminomethyl)-3-fluoroprop-2-en-1-yl]-5-oxo-1,5-dihydro-4H-1,2,4-triazol-4-ylmethyl)thiophen-2-yl]-2H-1,4-benzoxazin-3(4H)-one hydrochloride]
3900	490	> 100000	2.8	Cc1cc(-c2ccc(Cn3cnn(C/C(=C/F)CN)c3=O)s2)cnc1N1CCOCC1 [Example 172, 2-[(2E)-2-(aminomethyl)-3-fluoroprop-2-en-1-yl]-4-({5-[5-methyl-6-(morpholin-4-yl)pyridin-3-yl]thiophen-2-yl}methyl)-2,4-dihydro-3H-1,2,4-triazol-3-one]
1300	14000	> 100000	7.7	NC/C(=C\F)Cn1ncn(Cc2ccc(-c3ccc(N)cc3)s2)c1=O [Example 166, 2-[(2E)-2-(aminomethyl)-3-fluoroprop-2-en-1-yl]-4-{[5-(4-aminophenyl)thiophen-2-yl]methyl}-2,4-dihydro-3H-1,2,4-triazol-3-one]
120	310	> 100000	1	NC/C(=C\F)Cn1ncn(Cc2ccc(-c3ccc4nsnc4c3)s2)c1=O [Example 192, 2-[(2E)-2-(aminomethyl)-3-fluoroprop-2-en-1-yl]-4-{[5-(2,1,3-benzothiadiazol-5-yl)thiophen-2-yl]methyl}-2,4-dihydro-3H-1,2,4-triazol-3-one]
